Data as given in patent publication US20070112056A1, “Stable modifications of tegaserod hydrogen maleate” (priority 2003, published 2007).

Tests used:
Type in all cases: physicochemical
[1] = Stability of the crystal form when exposed to heat (DSC thermogram)
Method: Characteristic for the modification A is the thermogram in differential scanning calorimetry (DSC). It has an endothermic melting peak at about 190° C. The melting enthalpy of the endothermic signal Is 130 J/g±5 J/g. The measurement Is carried out on a Perkin Elmer DSC 7 in a crimped pan with a heating rate of 10 K/minute., The typical sample quantity is about 2 mg. As a typical distinguishing feature compared with the modification B and the acetone solvate, ethanol solvate, the thermogram of the modification A has no further thermal signal (see Table 1a below):
It has an endothermic peak in addition to the one at about 190° C., at 97° C. and melting/crystallization signals at about 181° C. […] The measurement is done as described above.

[2] = Conversion between crystal forms / thermodynamic stability
[3] = Stability of the crystal form in the presence of water
Solubility = test: Solubility
[4] = compared to modification B and the ethanol, acetone solvate

CCCCCNC(=N)N/N=C/c1c[nH]c2ccc(OC)cc12.O=C(O)/C=C\C(=O)O [modification B]
conversion of crystal form when heating is applied ([1]; DSC, heating rate 10 K/minute): converts into modification A
conversion of crystal form ([2]; under certain conditions, e.g. heat or water containing organic solvents): completely or partly be converted into modification A

CCCCCNC(=N)N/N=C/c1c[nH]c2ccc(OC)cc12.O=C(O)/C=C\C(=O)O [modification A, modification A of the hydrogen maleate salt of 3-(5-methoxy-1H-indol-3-yl-methylene)-N-pentylcarbazimidamide]
stability in the presence of water [3, 4]: more stable In the presence of water
stability when exposed to heat [1, 4]: more stable when exposed to heat
thermodynamic stability ([2]; relative to modification B): thermodynamically more stable than modification B

CCCCCNC(=N)N/N=C/c1c[nH]c2ccc(OC)cc12.O=C(O)/C=C\C(=O)O [tegaserod hydrogen maleate, 3-(5-methox-1H-indol-3-yl-methylene)-N-pentylcarbazimidamide hydrogen maleate]
solubility (Solubility): poor

CCCCCNC(=N)N/N=C/c1c[nH]c2ccc(OC)cc12.O=C(O)/C=C\C(=O)O [solvate with acetone]
conversion of crystal form by equilibration with water ([3]; equilibration with water): can be transformed into modification A
